Experimental data as given in PubChem BioAssay AID2060499 (Molecular Pharmacology Branch, DTP, NCI, 2025).

Test system: 777334-354-R2-J4-PDC tumor spheroids with HUVEC/MSC, viability
Experiment: Anticancer human tumor 777334-354-R2-J4-PDC patient-derived pancreatic adenocarcinoma cell line growth inhibition [GQUAD]
Details: for IC50: curve of first compound; for viability, T/C: stronger effect = lower value
How it was run: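 Viability of tumor cells grown as complex spheroids with endothelial and stromal cells, exposed to drug combinations. Top concentration at or near clinical Cmax (else 10 microM), diluted in half-log increments.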

[1] = second compound 0.0316 µM, first compound 0.0316 µM
[2] = second compound 0.0316 µM, first compound 0.316 µM
[3] = second compound 0.1 µM, first compound 0.0316 µM
[4] = second compound 0.1 µM, first compound 0.316 µM
[5] = second compound 0.316 µM, first compound 0.0316 µM
[6] = second compound 0.316 µM, first compound 0.316 µM
[7] = second compound 1 µM, first compound 0.0316 µM
[8] = second compound 1 µM, first compound 0.316 µM
[9] = second compound 3.16 µM, first compound 0.0316 µM
[10] = second compound 3.16 µM, first compound 0.316 µM
[11] = second compound 10 µM, first compound 0.0316 µM
[12] = second compound 10 µM, first compound 0.316 µM
[13] = second compound 0.0316 µM, first compound 0.1 µM
[14] = second compound 0.0316 µM, first compound 1 µM
[15] = second compound 0.0316 µM, first compound 3.16 µM
[16] = second compound 0.0316 µM, first compound 10 µM
[17] = second compound 0.1 µM, first compound 0.1 µM
[18] = second compound 0.1 µM, first compound 1 µM
[19] = second compound 0.1 µM, first compound 3.16 µM
[20] = second compound 0.1 µM, first compound 10 µM
[21] = second compound 0.316 µM, first compound 0.1 µM
[22] = second compound 0.316 µM, first compound 1 µM
[23] = second compound 0.316 µM, first compound 3.16 µM
[24] = second compound 0.316 µM, first compound 10 µM
[25] = second compound 1 µM, first compound 0.1 µM
[26] = second compound 1 µM, first compound 1 µM
[27] = second compound 1 µM, first compound 3.16 µM
[28] = second compound 1 µM, first compound 10 µM
[29] = second compound 3.16 µM, first compound 0.1 µM
[30] = second compound 3.16 µM, first compound 1 µM
[31] = second compound 3.16 µM, first compound 3.16 µM
[32] = second compound 3.16 µM, first compound 10 µM
[33] = second compound 10 µM, first compound 0.1 µM
[34] = second compound 10 µM, first compound 1 µM
[35] = second compound 10 µM, first compound 3.16 µM
[36] = second compound 10 µM, first compound 10 µM
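Note: spheroids exposed to compounds for 7 days before readout.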

Structure (SMILES): Cc1[nH]c2ccccc2c1CCNCc1ccc(/C=C/C(=O)NO)cc1 + Cc1cnc(CNC(=O)c2c(=O)c3ccc(N4CCCN(C)CC4)nc3n3c2sc2ccccc23)cn1
- IC50 (second compound 0.0316 µM): 144 nM
- IC50 (second compound 0.1 µM): 155 nM
- IC50 (second compound 0.316 µM): 122 nM
- IC50 (second compound 1 µM): 114 nM
- IC50 (second compound 3.16 µM): 89.3 nM
- IC50 (second compound 10 µM): < 0.999 nM
- viability, T/C (second compound 0.0316 µM, first compound 0.000999 µM): 95.1%
- viability, T/C (second compound 0.0316 µM, first compound 0.00316 µM): 89.1%
- viability, T/C (second compound 0.0316 µM, first compound 0.00999 µM): 93.1%
- viability, T/C [1]: 73.6%
- viability, T/C (second compound 0.0316 µM, first compound 0.0999 µM): 57.9%
- viability, T/C [2]: 35.5%
- viability, T/C (second compound 0.1 µM, first compound 0.000999 µM): 83.1%
- viability, T/C (second compound 0.1 µM, first compound 0.00316 µM): 69.4%
- viability, T/C (second compound 0.1 µM, first compound 0.00999 µM): 68.1%
- viability, T/C [3]: 73.2%
- viability, T/C (second compound 0.1 µM, first compound 0.0999 µM): 58.9%
- viability, T/C [4]: 35.3%
- viability, T/C (second compound 0.316 µM, first compound 0.000999 µM): 73.7%
- viability, T/C (second compound 0.316 µM, first compound 0.00316 µM): 79.5%
- viability, T/C (second compound 0.316 µM, first compound 0.00999 µM): 58.2%
- viability, T/C [5]: 69.3%
- viability, T/C (second compound 0.316 µM, first compound 0.0999 µM): 53.7%
- viability, T/C [6]: 32.9%
- viability, T/C (second compound 1 µM, first compound 0.000999 µM): 70.8%
- viability, T/C (second compound 1 µM, first compound 0.00316 µM): 66.2%
- viability, T/C (second compound 1 µM, first compound 0.00999 µM): 68.2%
- viability, T/C [7]: 58.1%
- viability, T/C (second compound 1 µM, first compound 0.0999 µM): 56%
- viability, T/C [8]: 26.4%
- viability, T/C (second compound 3.16 µM, first compound 0.000999 µM): 58%
- viability, T/C (second compound 3.16 µM, first compound 0.00316 µM): 58.6%
- viability, T/C (second compound 3.16 µM, first compound 0.00999 µM): 59.4%
- viability, T/C [9]: 53.8%
- viability, T/C (second compound 3.16 µM, first compound 0.0999 µM): 50.3%
- viability, T/C [10]: 18.6%
- viability, T/C (second compound 10 µM, first compound 0.000999 µM): 53.2%
- viability, T/C (second compound 10 µM, first compound 0.00316 µM): 46.2%
- viability, T/C (second compound 10 µM, first compound 0.00999 µM): 51.7%
- viability, T/C [11]: 46.1%
- viability, T/C (second compound 10 µM, first compound 0.0999 µM): 42.6%
- viability, T/C [12]: 1.07%

Structure (SMILES): COc1cccc2c1C(=O)c1c(O)c3c(c(O)c1C2=O)CC(O)(C(=O)CO)CC3OC1CC(N)C(O)C(C)O1 (stereo unspecified) + Cc1[nH]c2ccc(F)cc2c1-c1nc2c3cccnc3c3ncccc3c2[nH]1
- IC50 (second compound 0.0316 µM): 915 nM
- IC50 (second compound 0.1 µM): 878 nM
- IC50 (second compound 0.316 µM): 923 nM
- IC50 (second compound 1 µM): 646 nM
- IC50 (second compound 3.16 µM): < 31.6 nM
- IC50 (second compound 10 µM): < 31.6 nM
- viability, T/C [1]: 102%
- viability, T/C [13]: 83.2%
- viability, T/C [2]: 80.3%
- viability, T/C [14]: 47.1%
- viability, T/C [15]: 22.8%
- viability, T/C [16]: 15%
- viability, T/C [3]: 93.3%
- viability, T/C [17]: 80.5%
- viability, T/C [4]: 69.6%
- viability, T/C [18]: 49.2%
- viability, T/C [19]: 25.2%
- viability, T/C [20]: 14.9%
- viability, T/C [5]: 74.8%
- viability, T/C [21]: 82.6%
- viability, T/C [6]: 71.2%
- viability, T/C [22]: 46.8%
- viability, T/C [23]: 28.4%
- viability, T/C [24]: 17.4%
- viability, T/C [7]: 74.8%
- viability, T/C [25]: 75.8%
- viability, T/C [8]: 61.1%
- viability, T/C [26]: 42.9%
- viability, T/C [27]: 22.5%
- viability, T/C [28]: 13.6%
- viability, T/C [9]: 40.4%
- viability, T/C [29]: 27.8%
- viability, T/C [10]: 24.8%
- viability, T/C [30]: 16.7%
- viability, T/C [31]: 13.9%
- viability, T/C [32]: 9.55%
- viability, T/C [11]: 32%
- viability, T/C [33]: 23%
- viability, T/C [12]: 22.6%
- viability, T/C [34]: 16.5%
- viability, T/C [35]: 14.9%
- viability, T/C [36]: 10.9%

Structure (SMILES): CC(C)n1c(=O)n(C)c2cnc3cc(F)c(-c4ccc(OCCCN5CCCCC5)nc4)cc3c21 + CN(C)c1ccc(Nc2c3ccc(NC(=O)CCN4CCCC4)cc3nc3cc(NC(=O)CCN4CCCC4)ccc23)cc1
- IC50 (second compound 0.0316 µM): > 10000 nM
- IC50 (second compound 0.1 µM): > 10000 nM
- IC50 (second compound 0.316 µM): > 10000 nM
- IC50 (second compound 1 µM): > 10000 nM
- IC50 (second compound 3.16 µM): > 10000 nM
- IC50 (second compound 10 µM): 1650 nM
- viability, T/C [1]: 103%
- viability, T/C [13]: 94.4%
- viability, T/C [2]: 99.3%
- viability, T/C [14]: 107%
- viability, T/C [15]: 115%
- viability, T/C [16]: 92.3%
- viability, T/C [3]: 94%
- viability, T/C [17]: 93%
- viability, T/C [4]: 115%
- viability, T/C [18]: 104%
- viability, T/C [19]: 113%
- viability, T/C [20]: 93.4%
- viability, T/C [5]: 98.2%
- viability, T/C [21]: 111%
- viability, T/C [6]: 100%
- viability, T/C [22]: 107%
- viability, T/C [23]: 105%
- viability, T/C [24]: 77.5%
- viability, T/C [7]: 81.7%
- viability, T/C [25]: 85.6%
- viability, T/C [8]: 101%
- viability, T/C [26]: 90%
- viability, T/C [27]: 103%
- viability, T/C [28]: 75.2%
- viability, T/C [9]: 84.9%
- viability, T/C [29]: 75.3%
- viability, T/C [10]: 85.6%
- viability, T/C [30]: 83.2%
- viability, T/C [31]: 91.8%
- viability, T/C [32]: 62.1%
- viability, T/C [11]: 81.5%
- viability, T/C [33]: 75%
- viability, T/C [12]: 61.4%
- viability, T/C [34]: 58.6%
- viability, T/C [35]: 42.2%
- viability, T/C [36]: 31.7%
